Measurements taken from US10278942B2 (PELOTON THERAPEUTICS, INC., priority 2015, dated 2019).
Where two headings read alike, the source gives them in different places.

Assays:
[1] = system: 786-O-Hif-Luc cells; assay: Luciferase Assay (HIF responsive elements reporter)
Method: A pool of infected cells were then selected against 2 μg/mL of puromycin (P8833, Sigma) for 10 days followed by limited dilution to select single clones. […] Each concentration was tested in triplicate. After about 24 hours, luciferase activity was determined using ONE-Glo Luciferase Assay Reagent (E6110, Promega) following the manufacturer's recommended procedure. EC50 were calculated using Dotmatics software.

[2] = target: T1, HIF-2α HIS TAG-PASB Domain (Homo sapiens, UniProt Q99814); assay: HIF-2α Scintillation Proximity Assay (SPA); type: binding
T1 construct: 100 nM HIF-2α HIS TAG-PASB Domain
How it was run: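 IC50 values rest on percent inhibition, where the sample signal is scaled between high and low controls. Wells contain about 100 μL: compound dispensed as 2 μL of DMSO solution, 88 μL protein-probe mix and 10 μL of beads.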

[3] = read-out: Mean Luciferase EC50 (nM), 786-O-Hif-Luc cells
[4] = read-out: Scintillation Proximity Assay IC50

T1 sequence (Q99814 240-350 limits assumed): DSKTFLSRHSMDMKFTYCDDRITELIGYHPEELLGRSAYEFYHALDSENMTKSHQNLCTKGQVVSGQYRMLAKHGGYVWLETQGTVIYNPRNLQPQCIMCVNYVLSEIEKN

SMILES	EC50 [1, 3]	IC50 [2, 4]	EC50 ([1]; read-out: Mean Luciferase EC50 (nM))	IC50 ([2]; Scintillation Proximity Assay IC50 (nM))
CCc1ccc(S(=O)(=O)C(F)(F)F)c2c1CC(F)(F)C2O (centres unmarked) [Compound 516]	> 1000 nM	> 1000 nM	–	–
[2H]C1(O)c2c(ccc(Oc3cc(F)cc(Cl)c3)c2C(F)F)S(=O)(=O)C1(F)F (centres unmarked) [Compound 371]	–	–	< 50 nM	< 50 nM
CCOC(=O)/C=C/c1c(S(=O)(=O)C(F)(F)F)ccc(Oc2cc(F)cc(C#N)c2)c1C [Compound 148]	> 1000 nM	50 to 249 nM	–	–
O=S(=O)(CF)c1ccc(Oc2cc(F)cc(F)c2)c2c1C(O)CC2 (centres unmarked) [Compound 59]	50 to 249 nM	< 50 nM	–	–
N#Cc1cc(F)cc(Oc2ccc(S(=O)(=O)C(F)(F)F)cc2Br)c1 [Compound 118]	> 1000 nM	50 to 249 nM	–	–
O=S(=O)(c1ccc([C@@H]2CCC[C@@H](O)C2)c2c1[C@H](O)C(F)(F)C2)C(F)(F)F [Compound 480, (S)-2,2-difluoro-4-((1R,3R)-3-hydroxycyclohexyl)-7-((trifluoromethyl)sulfonyl)-2,3-dihydro-1H-inden-1-ol]	50 to 249 nM	50 to 249 nM	–	–
NC1CS(=O)(=O)c2ccc(Oc3cc(F)cc(Cl)c3)c(C(F)F)c21 (centres unmarked) [Compound 363]	> 1000 nM	> 1000 nM	–	–
O=S1(=O)c2ccc(Oc3cccc4sccc34)c(C(F)F)c2C(O)C1(F)F (centres unmarked) [Compound 440]	250 to 1000 nM	< 50 nM	–	–
O=S(=O)(c1ccc(Oc2cccc3[nH]ncc23)c2c1[C@H](O)C(F)(F)C2)C(F)(F)F [Compound 263]	250 to 1000 nM	< 50 nM	–	–
CS(=O)(=O)c1ccc(Oc2cc(F)cc(Cl)c2)c2c1[C@H](O)C(F)(F)C2 [Compound 160]	< 50 nM	< 50 nM	–	–
CS(=O)(=O)c1ccc(OC2CCC(F)(F)CC2)c2c1[C@H](O)C(F)(F)[C@@H]2F [Compound 771]	250 to 1000 nM	50 to 249 nM	–	–
O/N=C1/c2c(C(F)(F)F)ccc(OCC(F)F)c2[C@@H](F)C1(F)F [Compound 669]	250 to 1000 nM	50 to 249 nM	–	–
O=S(=O)(c1ccc(OCc2ccccc2)c2c1[C@H](O)C(F)(F)C2)C(F)F [Compound 780]	> 1000 nM	> 1000 nM	–	–
CS(=O)(=O)NCCOc1ccc(S(=O)(=O)C(F)(F)F)c2c1CC(F)(F)C2O (centres unmarked) [Compound 637]	> 1000 nM	250 to 1000 nM	–	–
N#Cc1c(Oc2cc(F)cc(F)c2)ccc2c1[C@@H](O)CS2(=O)=O [Compound 414]	250 to 1000 nM	50 to 249 nM	–	–
CC(C)CCOc1ccc(S(=O)(=O)C(F)(F)F)c2c1CC(F)(F)[C@H]2O [Compound 717]	50 to 249 nM	50 to 249 nM	–	–

SMILES	EC50 [1, 3]	IC50 [2, 4]	EC50 ([1]; read-out: Mean Luciferase EC50 (nM))	IC50 ([2]; Scintillation Proximity Assay IC50 (nM))
CC(Oc1ccc(S(=O)(=O)C(F)(F)F)c2c1CC(F)(F)[C@H]2O)C1(C#N)CC1 (some centres unmarked) [Compound 748]	250 to 1000 nM	250 to 1000 nM	–	–
CC1(C)CC[C@@H](O)[C@@H](c2ccc(S(=O)(=O)C(F)(F)F)c3c2CC(F)(F)[C@H]3O)C1 [Compound 545]	> 1000 nM	50 to 249 nM	–	–
O/N=C1/c2c(C(F)(F)F)ccc(OC3CC(F)(F)C3)c2CC1(F)F [Compound 672]	> 1000 nM	50 to 249 nM	–	–
OC1c2c(C(F)F)ccc(OCC(F)F)c2CC1(F)F (centres unmarked) [Compound 586]	> 1000 nM	50 to 249 nM	–	–
CS(=O)(=O)c1ccc(Oc2cc(F)cc(C#N)c2)c(C#N)c1Cl [Compound 152]	> 1000 nM	250 to 1000 nM	–	–
O=S(=O)(c1ccc(Oc2ccc(F)c(Cl)c2)c2c1C(O)CC2)C(F)(F)F (centres unmarked) [Compound 218]	> 1000 nM	250 to 1000 nM	–	–
CS(=O)(=O)c1ccc(OCC2CC2)c2c1[C@H](O)C(F)(F)C2 [Compound 779]	> 1000 nM	> 1000 nM	–	–
N#Cc1cc(F)cc(Oc2ccc3c(c2C#N)[C@@H](O)CS3(=O)=O)c1 [Compound 416]	250 to 1000 nM	> 1000 nM	–	–
CS(=O)(=O)c1ccc(Sc2cc(F)cc(Cl)c2)c2c1[C@H](O)C(F)(F)[C@@H]2F [Compound 491, (1S,3R)-4-((3-chloro-5-fluorophenyl)thio)-2,2,3-trifluoro-7-(methylsulfonyl)-2,3-dihydro-1H-inden-1-ol]	> 1000 nM	< 50 nM	–	–
Cc1cc(Oc2ccc(S(=O)(=O)C(F)F)c3c2CC(F)(F)[C@H]3O)ccc1F [Compound 198]	250 to 1000 nM	< 50 nM	–	–
CS(=O)(=O)c1ccc(O[C@H]2C[C@@](F)(C#N)C2)c2c1[C@H](O)C(F)(F)[C@@H]2F [Compound 739]	> 1000 nM	< 50 nM	–	–
O=S(=O)(c1ccc(Oc2cc(F)cc(Cl)c2)c(Cl)c1CCl)C(F)F [Compound 46]	> 1000 nM	250 to 1000 nM	–	–
N#Cc1cncc(Oc2ccc(S(=N)(=O)C(F)(F)F)c3c2CC(F)(F)[C@H]3O)c1 (some centres unmarked) [Compound 314]	50 to 249 nM	< 50 nM	–	–
O=S(=O)(c1ccc(Oc2cccc3[nH]ncc23)c2c1C(O)C(F)(F)C2)C(F)(F)F (centres unmarked) [Compound 243]	250 to 1000 nM	250 to 1000 nM	–	–
N#CC1(COc2ccc(S(=O)(=O)C(F)(F)F)c3c2CCC3O)CC1 (centres unmarked) [Compound 619]	> 1000 nM	> 1000 nM	–	–
